Consider two molecules from publication PMC5784979, “Direct comparison of the four aldehyde oxidase enzymes present in mouse gives insight into their substrate specificities” (PLoS ONE, 2018).

What is called Km is the substrate concentration at which the rate is half of its maximum.

Each structure is given as a SMILES string. A value given as a limit tells only on which side of the number the result lay.

This assay deals with T1, mAOX3 (Mus musculus, UniProt G3X982).
T1 construct: gene Aox3; recombinant from E. coli TP1000 (plasmid pMMA1), Ni-NTA and Superdex 200 purified, chemically sulfurated, dimer (300 kDa)
T1 sequence (G3X982 1-1335): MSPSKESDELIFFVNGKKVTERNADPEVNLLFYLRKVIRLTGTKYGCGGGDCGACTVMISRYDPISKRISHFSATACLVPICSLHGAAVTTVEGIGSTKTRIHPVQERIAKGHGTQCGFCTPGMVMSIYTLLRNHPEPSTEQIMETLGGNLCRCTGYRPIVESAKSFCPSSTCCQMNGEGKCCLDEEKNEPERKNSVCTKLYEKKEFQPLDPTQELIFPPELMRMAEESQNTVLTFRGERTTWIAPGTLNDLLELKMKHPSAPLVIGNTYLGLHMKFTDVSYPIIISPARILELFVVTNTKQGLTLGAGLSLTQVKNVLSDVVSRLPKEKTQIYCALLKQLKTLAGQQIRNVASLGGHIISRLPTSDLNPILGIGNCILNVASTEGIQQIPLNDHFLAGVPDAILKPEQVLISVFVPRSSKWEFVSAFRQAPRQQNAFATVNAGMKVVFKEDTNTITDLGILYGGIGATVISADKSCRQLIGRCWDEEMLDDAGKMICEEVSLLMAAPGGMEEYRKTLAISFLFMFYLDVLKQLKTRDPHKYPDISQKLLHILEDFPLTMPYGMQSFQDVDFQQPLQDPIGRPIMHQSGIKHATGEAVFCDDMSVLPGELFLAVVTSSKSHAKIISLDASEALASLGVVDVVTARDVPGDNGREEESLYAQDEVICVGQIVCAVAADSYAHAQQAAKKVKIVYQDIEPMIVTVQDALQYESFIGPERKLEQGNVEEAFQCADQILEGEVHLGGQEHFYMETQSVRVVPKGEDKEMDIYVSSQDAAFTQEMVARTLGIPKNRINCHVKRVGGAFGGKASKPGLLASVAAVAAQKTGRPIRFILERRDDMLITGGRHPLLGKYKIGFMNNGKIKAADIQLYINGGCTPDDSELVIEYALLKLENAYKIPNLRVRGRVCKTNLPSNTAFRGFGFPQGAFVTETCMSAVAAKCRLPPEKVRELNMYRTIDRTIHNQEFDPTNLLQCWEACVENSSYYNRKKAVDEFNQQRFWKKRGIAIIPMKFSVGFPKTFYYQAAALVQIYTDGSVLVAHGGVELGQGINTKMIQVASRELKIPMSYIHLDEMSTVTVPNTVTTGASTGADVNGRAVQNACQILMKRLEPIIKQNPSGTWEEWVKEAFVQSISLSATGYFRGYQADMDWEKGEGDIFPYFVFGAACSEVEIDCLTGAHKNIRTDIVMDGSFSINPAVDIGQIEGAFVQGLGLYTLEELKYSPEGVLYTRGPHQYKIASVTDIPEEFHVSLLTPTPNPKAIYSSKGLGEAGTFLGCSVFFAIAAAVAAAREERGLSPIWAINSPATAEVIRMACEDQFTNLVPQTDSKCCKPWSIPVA
In words: DCPIP reduction at […] nm, steady-state kinetics. Format: biochemical. The conditions noted are these: 100 μM DCPIP as electron acceptor, 50 mM Tris-HCl, 1 mM EDTA, pH 8.0, 37°C, corrected to 100% Mo saturation.

For `O=Cc1ccc(O)cc1` [4-hydroxybenzaldehyde], the Km (limit given jointly for mAOX3, mAOX4 and mAOX2) was < 0.002 mM.
For `CC=O` [acetaldehyde], for the setting “range printed jointly for mAOX3, mAOX4 and mAOX2”, the Km is 4.4 to 4.6 mM.
